Experimental data reported in patent publication US20230113802A1, “COMPOSITION AND METHOD TO PREPARE LONG-ACTING INJECTABLE SUSPENSION CONTAINING MULTIPLE CANCER DRUGS” (University of Washington, priority 2020, published 2023).
Marks after values point to notes of the source that are not given here.

Columns and labels:
[1] = Pharmacokinetics of venetoclax-zanubrutinib DcNP's versus free drug in mice; assay type: in vivo, BALB/C mice; settings: for AUC: female, BALB/C, mouse, plasma; for time detectable in plasma: following administration of the nanoparticles
From the text: (§1) To quantify drug concentrations (both DcNP-bound and free drug), an extraction protocol was established to quantify venetoclax and zanubrutinib. In short, drug was solubilized by diluting the sample into ethyl acetate, liberating it from either the DcNP lipid matrix, mouse plasma, or both. Following centrifugation to remove organic material, the samples were dried with nitrogen gas, reconstituted in acetonitrile, and loaded onto an LC-MS/MS. Drug concentrations were quantified by comparing sample data with standard curves prepared from untreated mouse plasma spiked with known amounts of drug.
(§2) Separations were carried out on a Synergi column (100×2.0 mm) (Phenomenex, Torrance, USA). A C8 guard column (4.0×2.0 mm) was used (Phenomenex, USA). The separations were done under ambient temperature, and the flow rate was set to 0.55 ml/min. The mobile phase for the separations consisted of buffers A (water with 20 mM ammonium acetate) and B (acetonitrile). The single mobile phase ran for five minutes, and it consisted of 25% buffer A and 75% buffer B.
All animal procedures complied with and were approved by the University of Washington Institutional Animal Care and Use Committee. Female BALB/C mice were used, originally obtained from Charles River Laboratories (Wilmington, Mass.). Mice were kept under pathogen-free conditions, exposed to a 12 h light/dark cycle, and received food ad libitum. Three groups of three mice each were administered ABT-199 and BGB-3111: (1) the first group received a 180 μL intravenous injection of 600 μg ABT-199 and 600 μg BGB-3111 in 0.9% NaCl, 20 mM NaHCO3 buffer with trace DMSO and Cremophor EL as solubilizing agents, (2) the second group received an intravenous injection of ABT-199 and BGB-3111 DcNP's in equivalent volume and drug molar concentration as the first group, and (3) the third group received a subcutaneous injection of ABT-199 and BGB-3111 DcNP's in the inner right leg. Plasma was collected at select time points, then extracted and analyzed by HPLC-MS/MS using the previously established protocol to determine plasma concentrations of drug over time.

MOLT-4 cells = assay: Leukemic cell uptake of free versus DcNP-associated drug, MOLT-4; assay type: cell-based, human
Method: FIGS. 13A-13D are a series of graphs showing the intracellular drug concentrations following incubation with free or DcNP-bound drug. Three leukemic cell lines were incubated with either free or DcNP-bound drug over four hours, and intracellular drug concentration was measured via LC-MS/MS. Both free drugs show relatively little drug uptake compared to the DcNP formulation. Free drug concentrations are roughly a quarter of the DcNP drug concentrations.
as §1, §2
HL-60 cells were cultured, counted, and aliquoted into multiple 1.5 mL Eppendorf tubes. A free drug solution of ABT-199 and BGB-3111 (1:1 w/w) was added to half of the tubes, while a DcNP solution of identical drug concentrations was added to the second half of tubes. The cells in the tubes were then allowed to incubate normally. At preselected time points, one incubation tube from each group was removed from the incubator, and the cells inside were washed twice with media to remove external drug and DcNP's. Cells were then lysed with acetonitrile, and drug concentrations were quantified according to the aforementioned extraction and LC-MS/MS protocol.

[2] = cited from earlier work
[3] = at 25° C.; cited from earlier work
[4] = Mechanism-based pharmacokinetic modeling (MBPK) of DcNP associated and dissociated GT; parameters: species or system mice; settings: for V, DcNP Dissociated Parameter: fitted to CrEL data
From the text: Briefly, the model adopted here for GT is composed of two sub-models representing DcNP-associated drug and dissociated drug species. Each sub-model has a central compartment and a peripheral compartment. The observed plasma concentration is the sum of DcNP-associated and dissociated species since they cannot be measured separately. […] These parameters were then fixed and the linked sub-models were fitted to the observed total concentrations for G and T obtained after injection of the DcNP-dose. The model reasonably assumed that the pharmacokinetics of drugs released from particles will be the same as that of the free-drug (CrEL) control. It was assumed that G and T are released from the particle at independent rates (k1,3) in the central compartment and only dissociated drugs are subject to clearance from the system (k0,1). […] The peripheral compartment features purely drug exchange between plasma and a group of slowly equilibrating tissues (k4,3, k3,4). In other words, the DcNP-associated drug is cleared only via its release from the particles in the central compartment. […] MBPK modeling and parameter estimations were performed using SAAM II v2.3.
To further understand the effect of DcNP on the pharmacokinetic behavior of GT, a mechanism-based pharmacokinetic model (MBPK) was used to simulate the time course of DcNP-associated and dissociated drugs in plasma. The MBPK model adapted for GT-DcNPs is based on a validated MBPK model developed for long-acting HIV drug combination nanoparticles tested in non-human primates. Experimentally, the total drug concentrations in plasma (i.e., DcNP-associated plus dissociated) can be measured, but DcNP-associated and dissociated drugs could not be distinguished. […] The MBPK model presented in FIG. 4 utilizes data from both DcNP and CrEL control formulation treated animals to estimate plasma concentrations of DcNP-associated and dissociated drug species over time and their respective time-averaged fractions in vivo. After intravenous administration as a DcNP, GT can theoretically exist in at least two species: DcNP-associated drug and dissociated drug. The latter can be reasonably assumed to distribute and be cleared as free G and T after administration of CrEL control formulation.
Individual distribution, metabolism and elimination of G and T are well characterized. […] T is metabolized in the liver primarily by CYP3A4 and CYP2C8 with subsequent excretion of metabolites into the bile. In this model, the k0,1 term represents the aggregate elimination processes of G and T through their independent described pathways. A peripheral compartment for both G and T was added and distribution was parameterized with the k1,2 and k2,1 terms. […] With these assumptions in place, the k1,3 term was set to link the two sub-models and represent the release mechanism of drug from DcNP into the central compartment. The DcNP associated species of G and T was then parameterized with the k4,3 and k3,4 to account for distribution.

[5] = iv, 600 ug, intravenous free drug injection (600 μg each drug)
[6] = iv, 600 ug, intravenously administered DcNP's
[7] = sc, subcutaneous injection of DcNP's, plasma over one week
[8] = MOLT-4, incubation with free drug
[9] = model derived, single IV dose in GT DcNP dosage form
[10] = model derived, single IV dose in GT DcNP dosage form, listed as G

Compound	AUC of subcutaneous DcNP's compared to intravenously delivered free drug (ratio) [1]	AUC [1, 5] [µg·h/mL]	AUC [1, 6] [µg·h/mL]	AUC [1, 7] [µg·h/mL]	time detectable in plasma [1]	peak intracellular drug concentration (MOLT-4 cells; MOLT-4, incubation with DcNP's) [ng/million cells]	peak intracellular drug concentration (MOLT-4 cells; [8]) [ng/million cells]	log P [2]	Water solubility [3] [µg/mL]	VDcNP, DcNP Associated Parameter [4, 9]	further results
CC1(C)CCC(CN2CCN(c3ccc(C(=O)NS(=O)(=O)c4ccc(NCC5CCOCC5)c([N+](=O)[O-])c4)c(Oc4cnc5[nH]ccc5c4)c3)CC2)=C(c2ccc(Cl)cc2)C1 [Venetoclax, 4-[4-[[2-(4-chlorophenyl)-4,4-dimethylcyclohexen-1-yl]methyl]piperazin-1-yl]-N-[3-nitro-4-(oxan-4-ylmethylamino)phenyl]sulfonyl-2-(1H-pyrrolo[2,3-b]pyridin-5-yloxy)benzamide]	over 2.62	88.8	216	232	up to seven days	718	176	6.92	0.933		
CC(=O)O[C@H]1C(=O)[C@@]2(C)[C@H]([C@H](OC(=O)c3ccccc3)[C@]3(O)C[C@H](OC(=O)[C@H](O)[C@@H](NC(=O)c4ccccc4)c4ccccc4)C(C)=C1C3(C)C)[C@]1(OC(C)=O)CO[C@@H]1C[C@@H]2O [Paclitaxel, [(1S,2S,3R,4S,7R,9S,10S,12R,15S)-4,12-diacetyloxy-15-[(2R,3S)-3-benzamido-2-hydroxy-3-phenylpropanoyl]oxy-1,9-dihydroxy-10,14,17,17-tetramethyl-11-oxo-6-oxatetracyclo[11.3.1.0^3,10.0^4,7]heptadec-13-en-2-yl] benzoate]										0.8^a mL	
C=CC(=O)N1CCC([C@@H]2CCNc3c(C(N)=O)c(-c4ccc(Oc5ccccc5)cc4)nn32)CC1 [Zanubrutinib, (7S)-2-(4-phenoxyphenyl)-7-(1-prop-2-enoylpiperidin-4-yl)-4,5,6,7-tetrahydropyrazolo[1,5-a]pyrimidine-3-carboxamide]	> 5.92	8.3	11.3	49	less than one day	208	42	3.5	10.3		
Nc1ccn([C@@H]2O[C@H](CO)[C@@H](O)C2(F)F)c(=O)n1 [Gemcitabine, 4-amino-1-[(2R,4R,5R)-3,3-difluoro-4-hydroxy-5-(hydroxymethyl)oxolan-2-yl]pyrimidin-2-one]										5.2 ± 0.6 mL	decrease of estimated volume of central compartment, DcNP compared to CrEL [4]: 4.6 times; release parameter (k1,3) of G lower than T ([4]; GT DcNP): 9.5 fold; K0,1, DcNP Dissociated Parameter [4, 9]: 3.9 ± 0.9 h⁻¹; K1,2, DcNP Dissociated Parameter [4, 9]: 0.5 ± 0.2 h⁻¹; K1,3 (release parameter), DcNP Associated Parameter [4, 9]: 0.2 ± 0.02 h⁻¹; K2,1, DcNP Dissociated Parameter [4, 9]: 0.2 ± 0.1 h⁻¹; K3,4, DcNP Associated Parameter [4, 9]: 0.6 ± 0.1 h⁻¹; K4,3, DcNP Associated Parameter [4, 9]: 1.8 ± 0.5 h⁻¹; V, DcNP Dissociated Parameter [4, 9]: 24 ± 12 mL; V, DcNP Dissociated Parameter [4, 10]: 24 mL; K1,3 (release parameter), DcNP Associated Parameter [4, 10]: 0.2 h⁻¹; VDcNP, DcNP Associated Parameter [4, 10]: 5.2 mL
